Laboratory results published in patent publication US20230098332A1, “HETEROCYCLIC DERIVATIVES AS TRMP8 ANTAGONISTS” (Givaudan SA, priority 2020, published 2023).
Structures can show the parent of a compound that is named as a salt.

Columns and labels:
[1] = system: trained group of panelists; test: Sensory studies in aqueous solution (trained panelists, cooling in the mouth); type: in vivo, human; conditions: 40 ppm in aqueous solution, 20 mL swilled in the mouth for 60 seconds; for Cooling after 1 hour / Max. cooling: averaged panel score 0-10
Method: The compounds as listed below in Table 2 were dissolved at a concentration of 1 wt-% in propylene glycol. These solutions were then dispensed in appropriate quantities into deionized water containing 0.5 wt-% Poloxamer 407 (which is a hydrophilic non-ionic surfactant, e.g., commercially available from SigmaAldrich) and 0.25 wt-% Cremaphor® RH40 (obtained from BASF) as solubilizer, to obtain the desired final concentration of 40 ppm (parts per million) of the respective compound.
A trained group of panelists evaluated the aqueous solutions containing test compound by swilling 20 mL of the solution in the mouth for 60 seconds, followed by spitting, without rinsing the mouth afterwards for the duration of the evaluation. Panelists evaluated and recorded the cooling performance as well as other sensorial and organoleptic attributes at different timepoints over a period of two hours. Cooling performance was rated on a scale from 0 to 10 with 0 being no effect and 10 being freezing. Scores were averaged for all panelists and the cooling intensity qualified as “N” for “none” (score of 0), “L” for “low” (score above 0, up to 1), “M” for “medium” (score above 1, up to 4), “S” for “strong” (score above 4, up to 8) and “E” for “extreme” (score above 8), which are provided in Table 2.

hTRPM8 = biological target: T1, hTRPM8 (Homo sapiens, UniProt Q7Z2W7); test: Assay on TRPM8 modulators: calcium imaging (Fluo-4, Flexstation) in HEK293 cell line stably expressing hTRPM8; type: cell-based; conditions: TRPM8 agonist activity, calcium influx, HEK293 stably expressing hTRPM8, sigmoidal dose-response fit
T1 construct: expressed in transfected cells
Method: A HEK293 cell line stably expressing hTRPM8 was generated according to Klein et al., (Chem. Senses 36: 649-658, 2011) and receptor activation was monitored by calcium imaging in a Flexstation. For Ca-imaging assays of TRPM8 channel activation, cells were seeded on day 0 at a density of 12000 cells per well in Dulbecco's modified Eagle medium (DMEM) containing 9% foetal bovine serum in black, clear bottom 96-well plates that had been coated with 0.001% polyethyleneimine (molecular weight=60 000, Acros Organics). On day 2, agonists were evaluated via calcium imaging using Fluo-4. Briefly, growth medium was discarded, and the cells were incubated in the dark for 1 h at 37° C. in 50 μL loading buffer consisting of 2.7 μM Fluo-4 AM (Invitrogen) and […] probenecid (Sigma-Aldrich) in DMEM (without serum). After incubation, the plates were washed five times with 100 μL of assay buffer (in mM: 130 NaCl, 5 KCl, 10 HEPES, 2 CaCl2, and 10 glucose, pH7.4.) and further incubated in the dark at room temperature for 30 min. The cells were then washed five times with 100 μL assay buffer and then calcium influx to serial dilutions of inventive compounds were measured in a Flexstation 3 (Molecular Devices). Receptor activation was initiated following addition of 20 μl of a 10-fold concentrated ligand stock solution, which is also prepared in assay buffer. Fluorescence was continuously monitored for 15 seconds prior to ligand addition and for 105 seconds after ligand addition, for a total of 120 seconds. Maximal receptor activation in relation to solvent control and relative to 31.6 μM menthol is determined. Data from serial dilutions were processed with a KNIME workflow to fit a sigmoidal dose-response curve and to extrapolate EC50 values.

T1 sequence (Q7Z2W7 whole entry): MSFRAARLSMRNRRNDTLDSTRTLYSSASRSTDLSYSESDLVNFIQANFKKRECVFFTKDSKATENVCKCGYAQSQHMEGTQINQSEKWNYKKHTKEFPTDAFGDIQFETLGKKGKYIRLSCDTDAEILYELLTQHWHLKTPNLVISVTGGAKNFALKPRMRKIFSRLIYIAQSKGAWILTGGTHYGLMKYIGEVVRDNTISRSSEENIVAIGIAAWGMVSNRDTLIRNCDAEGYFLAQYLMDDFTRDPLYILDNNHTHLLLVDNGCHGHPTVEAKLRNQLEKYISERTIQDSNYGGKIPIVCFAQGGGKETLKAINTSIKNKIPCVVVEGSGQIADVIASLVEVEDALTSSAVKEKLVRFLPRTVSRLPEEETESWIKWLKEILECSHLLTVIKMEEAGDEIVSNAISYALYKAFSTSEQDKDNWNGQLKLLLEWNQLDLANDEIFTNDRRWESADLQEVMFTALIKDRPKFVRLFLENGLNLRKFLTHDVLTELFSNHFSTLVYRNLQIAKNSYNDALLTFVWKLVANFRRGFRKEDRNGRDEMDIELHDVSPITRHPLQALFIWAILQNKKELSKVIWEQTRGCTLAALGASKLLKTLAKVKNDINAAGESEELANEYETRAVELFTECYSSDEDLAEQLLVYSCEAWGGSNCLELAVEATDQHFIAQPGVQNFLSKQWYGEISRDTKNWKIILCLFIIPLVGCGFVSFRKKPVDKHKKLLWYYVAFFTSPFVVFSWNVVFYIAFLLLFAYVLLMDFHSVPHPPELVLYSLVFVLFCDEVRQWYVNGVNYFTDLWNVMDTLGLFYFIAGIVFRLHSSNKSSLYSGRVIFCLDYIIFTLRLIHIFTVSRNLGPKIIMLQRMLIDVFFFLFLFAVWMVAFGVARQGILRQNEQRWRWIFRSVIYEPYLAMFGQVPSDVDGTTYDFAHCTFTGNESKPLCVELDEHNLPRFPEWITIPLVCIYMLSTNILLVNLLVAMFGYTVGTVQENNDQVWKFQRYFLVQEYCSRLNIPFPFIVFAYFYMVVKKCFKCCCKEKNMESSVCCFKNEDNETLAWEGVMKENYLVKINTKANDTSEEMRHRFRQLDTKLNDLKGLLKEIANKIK

EC50 (hTRPM8) [µM]	SMILES	further results
0.3 to 1	Cc1ccc(CCCN2CCN(C)CC2)c(Cc2ccccc2)c1 [compound 100, 1-(3-(2-benzyl-4-methylphenyl)propyl)-4-methylpiperazine]	Time of max. cooling [1]: 10 min; Cooling after 1 hour [1]: M (“M” for “medium” (score above 1, up to 4)); Max. cooling [1]: M (“M” for “medium” (score above 1, up to 4))
0.3 to 1	Cc1ccc(OC(C)CN2CCN(C)CC2)c(Cc2ccccc2)c1 (stereo not shown) [compound 90, 1-(2-(2-benzyl-4-methylphenoxy)propyl)-4-methylpiperazine]	Time of max. cooling [1]: 10 min; Cooling after 1 hour [1]: M (“M” for “medium” (score above 1, up to 4)); Max. cooling [1]: M (“M” for “medium” (score above 1, up to 4))
1 to 35	Cc1ccc(OCCN2CCN(C)CC2)c(Cc2ccc(Cl)cc2)c1 [compound 60, 1-(2-(2-(4-chlorobenzyl)-4-methylphenoxy)ethyl)-4-methylpiperazine hydrochloride]	–
0.05 to 0.3	Cc1cc(C)c(OC(C)CN2CCN(C)CC2)c(Cc2ccccc2C#N)c1 (stereo not shown) [compound 115, 2-(3,5-dimethyl-2-((1-(4-methylpiperazin-1-yl)propan-2-yl)oxy)benzyl)benzonitrile]	–
1 to 35	Cc1ccc(OCCN2CCN(C)CC2)c(Cc2cccc(Cl)c2)c1 [compound 59, 1-(2-(2-(3-chlorobenzyl)-4-methylphenoxy)ethyl)-4-methylpiperazine]	–
1 to 35	Cc1ccc(OCCN2CCC(CO)CC2)c(Cc2ccccc2)c1 [compound 40, (1-(2-(2-benzyl-4-methylphenoxy)ethyl)piperidin-4-yl)methanol]	–
0.05 to 0.3	Cc1ccc(OCCN2CCOCC2)c(Cc2c(F)cccc2F)c1 [compound 151, 4-(2-(2-(2,6-difluorobenzyl)-4-methylphenoxy)ethyl)morpholine]	–
0.05 to 0.3	Cc1cc(C)c(OCCN2CCN(C)CC2)c(Cc2ccccc2F)c1 [compound 56, 1-(2-(2-(2-fluorobenzyl)-4,6-dimethylphenoxy)ethyl)-4-methylpiperazine]	–
1 to 35	Cc1ccc(CCN2CCN(C)CC2)c(Cc2ccccc2)c1 [compound 96, 1-(2-benzyl-4-methylphenethyl)-4-methylpiperazine]	–
1 to 35	CCN1CCN(CCOc2ccc(C)cc2Cc2ccccc2)CC1 [compound 76, 1-(2-(2-benzyl-4-methylphenoxy)ethyl)-4-ethylpiperazine hydrochloride]	–
1 to 35	Cc1ccc(OCCN2CCOCC2)c(CC2CCCCC2=O)c1 (stereo not shown) [compound 131, 2-(5-methyl-2-(2-morpholinoethoxy)benzyl)cyclohexan-1-one]	–
0.05 to 0.3	Cc1ccc(N(C)CCN2CCOCC2)c(Cc2ccccc2)c1 [compound 138, 2-benzyl-N,4-dimethyl-N-(2-morpholinoethyl)aniline]	–
1 to 35	CC(C)c1ccc(OCCN2CCN(C)CC2)c(Cc2ccccc2)c1 [compound 75, 1-(2-(2-benzyl-4-isopropylphenoxy)ethyl)-4-methylpiperazine]	–
0.05 to 0.3	Cc1cc(C)c(OCCCN2CCOCC2)c(Cc2ccccc2C#N)c1 [compound 124, 2-(3,5-dimethyl-2-(3-morpholinopropoxy)benzyl)benzonitrile]	–
1 to 35	CCN1CCN(CCOc2ccc(Cl)cc2Cc2ccccc2)CC1 [compound 72, 1-(2-(2-benzyl-4-chlorophenoxy)ethyl)-4-ethylpiperazine hydrochloride]	–
0.05 to 0.3	Cc1cc(C)c(OCC(C)N2CCOCC2)c(Cc2c(F)cccc2F)c1 (stereo not shown) [compound 143, 4-(1-(2-(2,6-difluorobenzyl)-4,6-dimethylphenoxy)propan-2-yl)morpholine]	–
1 to 35	Cc1ccc(Oc2ccccc2C#N)c(CCCN2CCN(C)CC2)c1 [compound 127, 2-(4-methyl-2-(3-(4-methylpiperazin-1-yl)propyl)phenoxy)benzonitrile]	–
0.3 to 1	Cc1cc(C)c(OCCN2CCOCC2)c(Cc2c(Br)cccc2C#N)c1 [compound 141, 3-bromo-2-(3,5-dimethyl-2-(2-morpholinoethoxy)benzyl)benzonitrile]	–
1 to 35	CC1CCC(OCCN2CCN(C)CC2)C(Cc2ccccc2)C1 (stereo not shown) [compound 52, 1-(2-((2-benzyl-4-methylcyclohexyl)oxy)ethyl)-4-methylpiperazine dihydrochloride]	–

EC50 (hTRPM8) [µM]	SMILES	further results
1 to 35	Cc1ccc(OCCN2CCC(O)CC2)c(Cc2ccccc2)c1 [compound 89, 1-(2-(2-benzyl-4-methylphenoxy)ethyl)piperidin-4-ol]	–
1 to 35	Cc1ccc(C)c(OCCN2CCN(C)CC2)c1Cc1ccccc1 [compound 66, 1-(2-(2-benzyl-3,6-dimethylphenoxy)ethyl)-4-methylpiperazine]	–
1 to 35	CN1CCN(CC2CCc3cccc(Cc4ccccc4)c3O2)CC1 (stereo not shown) [compound 50, 1-((8-benzylchroman-2-yl)methyl)-4-methylpiperazine]	–
1 to 35	COc1cc(C(C)(C)C)cc(Cc2ccccc2)c1OCCN1CCN(C)CC1 [compound 69, 1-(2-(2-benzyl-4-(tert-butyl)-6-methoxyphenoxy)ethyl)-4-methylpiperazine]	–
0.3 to 1	Cc1ccc(OCCN2CCN(C)CC2)c(/C=C2\CCCCC2=O)c1 [compound 46, (E)-2-(5-methyl-2-(2-(4-methylpiperazin-1-yl)ethoxy)benzylidene)cyclohexan-1-one]	–
0.05 to 0.3	Cc1ccc(CC(O)CN2CCOCC2)c(Oc2ccccc2C#N)c1 (stereo not shown) [compound 107, 2-(2-(2-hydroxy-3-morpholinopropyl)-5-methylphenoxy)benzonitrile]	–
1 to 35	Cc1ccc(CC(=O)CN2CCN(C)CC2)c(Cc2ccccc2)c1 [compound 98, 1-(2-benzyl-4-methylphenyl)-3-(4-methylpiperazin-1-yl)propan-2-one]	–
1 to 35	Cc1ccc(/C=C/CN2CCN(C)CC2)c(Cc2ccccc2)c1 [compound 44, (E)-1-(3-(2-benzyl-4-methylphenyl)allyl)-4-methylpiperazine]	–
0.05 to 0.3	Cc1cc(C)c(OCCN2CCOCC2)c(Cc2cc(F)ccc2F)c1 [compound 147, 4-(2-(2-(2,5-difluorobenzyl)-4,6-dimethylphenoxy)ethyl)morpholine]	–
1 to 35	Cc1ccc(OCCN2CCN(C)CC2)c(C(O)c2ccccc2)c1 (stereo not shown) [compound 41, (5-methyl-2-(2-(4-methylpiperazin-1-yl)ethoxy)phenyl)(phenyl)methanol]	–
0.3 to 1	Cc1ccc(OCCN2CCN(C)CC2)c(Cc2cccs2)c1 [compound 105, 1-methyl-4-(2-(4-methyl-2-(thiophen-2-ylmethyl)phenoxy)ethyl)piperazine hydrochloride]	–
0.3 to 1	Cc1ccc(OCCN2CCN(C)CC2)c(Cc2ccccc2C)c1 [compound 103, 1-methyl-4-(2-(4-methyl-2-(2-methylbenzyl)phenoxy)ethyl)piperazine]	–
0.3 to 1	Cc1cc(C)c(OCCN2CCN(C)CC2)c(Cc2ccccc2C(F)(F)F)c1 [compound 62, 1-(2-(2,4-dimethyl-6-(2-(trifluoromethyl)benzyl)phenoxy)ethyl)-4-methylpiperazine]	–
0.05 to 0.3	Cc1cc(C)c(OC(C)CN2CCN(C)CC2)c(Cc2ccccc2C#N)c1 (stereo not shown) [compound 116, 2-(3,5-dimethyl-2-((1-(4-methylpiperazin-1-yl)propan-2-yl)oxy)benzyl)benzonitrile hydrochloride]	–
0.3 to 1	Cc1ccc(OC(C)CN2CCN(C)CC2)c(Cc2ccccc2)c1 (stereo not shown) [compound 91, 1-(2-(2-benzyl-4-methylphenoxy)propyl)-4-methylpiperazine hydrochloride]	–
0.3 to 1	Cc1cc(C)c(OC(C)CO)c(Cc2ccccc2C#N)c1 (stereo not shown) [compound 106, 2-(2-((1-hydroxypropan-2-yl)oxy)-3,5-dimethylbenzyl)benzonitrile]	–
0.3 to 1	Cc1cc(C)c(OCCN2CCN(C)CC2)c(Cc2ccccc2Br)c1 [compound 54, 1-(2-(2-(2-bromobenzyl)-4,6-dimethylphenoxy)ethyl)-4-methylpiperazine]	–
0.05 to 0.3	CCc1cc(C)cc(Cc2ccccc2F)c1OCCN1CCOCC1 [compound 161, 4-(2-(2-ethyl-6-(2-fluorobenzyl)-4-methylphenoxy)ethyl)morpholine]	–
